Data set [1] in a line: Caco-2 cell monolayer transport (absorption, AP → BL), HPLC-DAD. The settings on record: human.
Protocol: The cells were left to grow for 21 days to reach confluence and differentiation, so that Caco-2 cells were fully differentiated in this assay and used for further experiments.
Flux describes the movement of a substance across polarized Caco-2 monolayers either in absorptive (apical → basolateral, AP → BL) or secretary direction (basolateral → apical, BL → AP). Absorption assay was carried out in this research.
To determine the concentration of corresponding constituents in both AP and BL sides, the lyophilized samples of AP and BL sides were dissolved in quantitative methanol by ultrasound for 20 min and then filtered by 0.45 μm filtration membranes.
The next data set deals with Caco-2 cell monolayer. The description is as above. The note with it: for recovery rate (in words): Caco-2 assay; for absorption by human intestinal epithelial cells, judged from P app against atenolol and propranolol: Caco-2 monolayer, AP → BL.
Where [2] appears, read: Caco-2, Recovery rate, total compound in donor and receiver at end / initial compound, Caco-2, 90 min, Mean ± SD, n ≥ 3.

Each structure is given as a SMILES string. “Also recorded” adds a separate entry of the source.

Compound `OC[C@H]1O[C@@H](Oc2c(O)cc(O)cc2/C=C/c2ccc(O)cc2)[C@H](O)[C@@H](O)[C@@H]1O` [TSG, 2,3,5,4′-tetrahydroxystilbene-2-O-β-D-glucoside] showed a Papp at 1.5 h in data set [1] (Caco-2) of 0.00237 ×10⁻⁶ cm/s. The compound also yielded a recovery at 1.5 h in data set [1] (setting [2]) of 17.4 ± 1.6%. In the data set on Caco-2 cell monolayer, the “recovery rate (in words)” value is listed as “poor recovery rates; also recorded: low recovery rates”; the “absorption by human intestinal epithelial cells, judged from P app against atenolol and propranolol” value is “hardly absorbed; also recorded: poorly absorbed”.

In data set [1] (Caco-2), `O=C(O)c1cc(O)c2c(c1)C(=O)c1cccc(O)c1C2=O` [RN, rhein] gave a Papp at 1.5 h of 0.0171 ×10⁻⁶ cm/s. The same compound showed a recovery at 1.5 h in data set [1] (setting [2]) of approximately 100%. Further, the “absorption by human intestinal epithelial cells, judged from P app against atenolol and propranolol” value with Caco-2 cell monolayer is “partly absorbed”.

In turn, `Oc1ccc(/C=C/c2cc(O)cc(O)c2)cc1` [RL, resveratrol] yielded a Papp at 1.5 h in data set [1] (Caco-2) of 0.0178 ×10⁻⁶ cm/s. For the same compound, the recovery at 1.5 h in data set [1] (setting [2]) was 62.4 ± 6.21%. For the same compound, the “absorption by human intestinal epithelial cells, judged from P app against atenolol and propranolol” value in the data set on Caco-2 cell monolayer is listed as “partly absorbed”.

In turn, `OC[C@H]1O[C@@H](Oc2cc(O)cc(/C=C/c3ccc(O)cc3)c2)[C@H](O)[C@@H](O)[C@@H]1O` [PL, polydatin] yielded a Papp at 1.5 h in data set [1] (Caco-2) of 0.00492 ×10⁻⁶ cm/s. This compound gave a recovery at 1.5 h in data set [1] (setting [2]) of 59.9 ± 9.9%. The “absorption by human intestinal epithelial cells, judged from P app against atenolol and propranolol” value in the data set with Caco-2 cell monolayer is reported as “hardly absorbed”.

Consider `O=C1c2cccc(O)c2C(=O)c2c(O)cc(CO)cc21` [AE, aloe-emodin], for which, in data set [1] (Caco-2), the Papp at 1.5 h came to 0.0195 ×10⁻⁶ cm/s and the recovery at 1.5 h was determined as 42.4 ± 6.32%. Moreover, the “absorption by human intestinal epithelial cells, judged from P app against atenolol and propranolol” value with Caco-2 cell monolayer was “partly absorbed”.

In data set [1] (Caco-2), `Cc1cc(O)c2c(c1)C(=O)c1cc(O)cc(O)c1C2=O` [EN, emodin] returned a Papp at 1.5 h of 0.00248 ×10⁻⁶ cm/s and a recovery at 1.5 h of 14.5 ± 2.5%. The “recovery rate (in words)” value in the data set with Caco-2 cell monolayer is reported as “poor recovery rates; also recorded: low recovery rates”.

Consider `CC(C)NCC(O)COc1cccc2ccccc12` (stereo not drawn) [PR, Propranolol, reference compound], for which the Papp at 1.5 h in data set [1] (Caco-2) worked out at 0.0607 ×10⁻⁶ cm/s. Also, in data set [1] (setting [2]), the recovery at 1.5 h was approximately 100%.

The values are drawn from publication PMC3944923, “Intestinal Transportations of Main Chemical Compositions of Polygoni Multiflori Radix in Caco-2 Cell Model” (Evidence-based Complementary and Alternative Medicine : eCAM, 2014).
